Experimental data taken from patent US3952061A, “Method of isomerizing humulone to isohumulone by catalytic acceleration with metal salts” (Atlantic Research Institute Limited, priority 1967, dated 1976).
Read-outs that look alike come from different tables or passages of the source.

Columns and labels:
tubercular bacteria = details: tests in vitro; cited from earlier work
[1] = format: physicochemical
Method: The acceleration of the isomerization in accordance with the present invention is particularly striking at pH values of between 4 and 8. […] For the characterization of this acceleration of the conversion of humulone to isohumulone, reaction-kinetic experiments at different temperatures are shown in the accompanying figures. As reaction media there is used an 0.1 and 0.025 molar sodium acetate solution to which there are added in each case the metal salts in concentrations of 10^^-3 mol/liter and 10^^-4 mol/liter, respectively. Furthermore, pure metal salt solutions of higher concentration (0.025 mol/liter) (FIG. 2) of different pH were also used for the conversion of the humulone.
By way of comparison, the slow isomerization reaction in pure phosphate buffers is also recorded. It should be emphasized that the sodium acetate in the reaction solutions is not necessary for the reaction itself, but merely serves to maintain the pH constant. […] For FIGS. 1 and 2, the logarithm of the humulone extinction measured in a spectral photometer was plotted against the reaction time (in accordance with the law of Lambert and Beer, the extinction is directly proportional to the concentration).

Row | Compound | activity compared with Conteben (tubercular bacteria) | Half-Life ([1]; acetate buffer + cacl2, pH 8) [min] | Half-Life ([1]; acetate buffer + cdcl2, pH 7) [min] | Half-Life ([1]; acetate buffer + mgcl2, pH 7.5) [min] | Half-Life ([1]; acetate buffer + mgcl2, pH 8) [min] | Half-Life ([1]; acetate buffer + mncl2, pH 7.5) [min] | Half-Life ([1]; acetate buffer + niso4, pH 6.5) [min] | Half-Life ([1]; acetate buffer, pH 7) [min] | Half-Life ([1]; phosphate buffer, pH 5.5) [min] | Half-Life about (bacl2 solution, pH 6.9) [min] | Half-Life about (cacl2 solution, pH 6.6) [min] | Half-Life about (cecl3 solution, pH 4.2) [min] | Half-Life about (niso4 solution, pH 4.7) [min] | Half-Life about (phosphate buffer, pH 5.5) [min] | Half-Life about (phosphate buffer, pH 7.2) [min]
1 | CC(C)=CCC(=O)C1(O)C(O)=C(C(=O)CC(C)C)C(=O)C1CC=C(C)C (stereo not drawn) [isohumulone] | practically just as active as Conteben |  |  |  |  |  |  |  |  |  |  |  |  |  | 
2 | humulone |  | 22 | 5.9 | 7.3 | 2.6 | 3.2 | 2.5 | 360 | 120 | ~9 | ~2 | ~10 | ~0.7 | ~100 | ~100
